{
  "source": "patent US20230174473A1",
  "about": "“ANTIMICROBIAL AND ANTIVIRAL SULFUR CONTAINING GLYCEROL MONOESTER DERIVATIVES” (priority 2020, published 2023)",
  "key": {"[1]": {"tested_on": "Staphylococcus aureus strain MN8", "test": "MIC and MBC assay, broth dilution with plate counts", "format": "cell-based", "settings": "Staphylococcus aureus, MN8, 24 h", "procedure": "For this experiment, all cultures were aerobic at 37° C. with 150 RPM gyrotary shaking. Stationary phase with this microbe is 1.0x1010 colony-forming units (CFUs)/ml. The next morning the culture was diluted to approximately 5x10^6/ml in 1 ml amounts of Todd Hewitt broth in 5 ml polystyrene test tubes. The tubes contained serial two-fold dilutions of glycerol monolaurate, SGML, or […]. The control tubes contained no GML or SGML and […] compounds. The compounds were tested in triplicate. […] The control tube contained the highest volume of ethanol that was used to deliver the compounds to each 1 ml test tube. […] Once plated, the plates were incubated aerobically for 24 hours at 37° C. Counts were made to determine CFUs/ml. The CFUs/ml were log-transformed and mean ± SD were determined. Using the standard MIC and MBC assay above with staphylococcus aureus strain […] and […] were tested with GML."}, "TSST-1": {"tested_on": "TSST-1", "format": "cell-based, Staphylococcus aureus"}, "Escherichia coli": {"tested_on": "Escherichia coli", "test": "MIC and MBC test with E. coli", "format": "cell-based", "procedure": "The conditions for this test were the same as in the above example with S. aureus MN8. The E. coli strain was a laboratory strain from a patient with a confirmed urinary tract infection. The strain is maintained in the laboratory at -80° C."}, "[2]": {"tested_on": "Streptococcus pyogenes (Group A streptococcus) 594", "test": "MIC/MBC at 24 hours", "format": "cell-based", "settings": "Streptococcus pyogenes GAS 594, Time 0 2.7E+06 CFU/ml, stationary at 37° C. in 5% CO2", "procedure": "Streptococcus pyogenes (Group A streptococcus) 594 is a standard scarlet fever strain that has been extensively published on. The strain was incubated stationary at 37° C. in 5% CO2.\nAll solutions used in the MBC and MIC studies were prepared from a stock of 100 mg/ml of either GML, SGML or S2GML in absolute ethanol."}, "[3]": {"tested_on": "other Gram-positive bacteria and Gram-negative bacteria with an incomplete lipopolysaccharide", "test": "Killing of other bacteria by GML", "format": "cell-based", "settings": "other Gram-positive bacteria and Gram-negative bacteria with lipo-oligosaccharide"}, "[4]": {"tested_on": "Gram-negative bacteria with an intact lipopolysaccharide, such as Escherichia coli", "test": "Killing of Gram-negative bacteria with intact lipopolysaccharide by GML", "format": "cell-based"}, "[5]": {"tested_on": "glycerol ester hydrolase (lipase)", "test": "Lipase production by S. aureus in presence of GML", "format": "cell-based, Staphylococcus aureus", "settings": "S. aureus strains"}, "Staphylococcus aureus": {"tested_on": "Staphylococcus aureus", "settings": "Gram Positive; Aerobe; 54 strains tested; cited from earlier work"}, "Streptococcus pyogenes": {"tested_on": "Streptococcus pyogenes", "settings": "Gram Positive; Aerotolerant Anaerobe; 4 strains tested; cited from earlier work"}, "Streptococcus agalactiae": {"tested_on": "Streptococcus agalactiae", "settings": "Gram Positive; Aerotolerant Anaerobe; 3 strains tested; cited from earlier work"}, "Group F Streptococcus": {"tested_on": "Group F Streptococcus", "settings": "Gram Positive; Aerotolerant Anaerobe; 1 strain tested; cited from earlier work"}, "[6]": {"tested_on": "Streptococcus pneumoniae Serotype III", "settings": "Gram Positive; Aerotolerant Anaerobe; 2 strains tested; cited from earlier work"}, "Enterococcus faecalis": {"tested_on": "Enterococcus faecalis", "settings": "Gram Positive; Aerotolerant Anaerobe; 1 strain tested; cited from earlier work"}, "[7]": {"tested_on": "Bacillus anthracis Sterne", "settings": "Gram Positive; Aerobe; 1 strain tested; cited from earlier work"}, "Bacillus cereus": {"tested_on": "Bacillus cereus", "settings": "Gram Positive; Aerobe; 1 strain tested; cited from earlier work"}, "[8]": {"tested_on": "Peptostreptococcus species", "settings": "Gram Positive; Anaerobe; 1 strain tested; cited from earlier work"}, "Neisseria gonorrhoeae": {"tested_on": "Neisseria gonorrhoeae", "settings": "Gram Negative; Aerobe; 1 strain tested; cited from earlier work"}, "[9]": {"tested_on": "Haemophilus influenza Non-typable", "settings": "Gram Negative; Aerobe; 2 strains tested; cited from earlier work"}, "Gardnerella vaginalis": {"tested_on": "Gardnerella vaginalis", "settings": "Gram Negative; Aerobe; 2 strains tested; cited from earlier work"}, "Campylobacter jejuni": {"tested_on": "Campylobacter jejuni", "settings": "Gram Negative; Aerobe; 1 strain tested; cited from earlier work"}, "[10]": {"tested_on": "Bordetella bronchiseptica", "settings": "Gram Negative; Aerobe; 1 strain tested; cited from earlier work"}, "Pseudomonas aeruginosa": {"tested_on": "Pseudomonas aeruginosa", "settings": "Gram Negative; Aerobe; 1 strain tested; cited from earlier work"}, "Pasteurella multocida": {"tested_on": "Pasteurella multocida", "settings": "Gram Negative; Aerobe; 1 strain tested; cited from earlier work"}, "[11]": {"tested_on": "Prevotella melaninogenica", "settings": "Gram Negative; Anaerobe; 1 strain tested; cited from earlier work"}, "Bacteroides fragilis": {"tested_on": "Bacteroides fragilis", "settings": "Gram Negative; Anaerobe; 2 strains tested; cited from earlier work"}, "Fusobacterium species": {"tested_on": "Fusobacterium species", "settings": "Gram Negative; Anaerobe; 1 strain tested; cited from earlier work"}, "Salmonella Minnesota": {"tested_on": "Salmonella Minnesota", "settings": "Gram Negative; Aerobe; 1 strain tested; cited from earlier work"}, "Enterobacter aerogenes": {"tested_on": "Enterobacter aerogenes", "settings": "Gram Negative; Aerobe; 1 strain tested; cited from earlier work"}, "Shigella sonnei": {"tested_on": "Shigella sonnei", "settings": "Gram Negative; Aerobe; 1 strain tested; cited from earlier work"}, "Klebsiella pneumoniae": {"tested_on": "Klebsiella pneumoniae", "settings": "Gram Negative; Aerobe; 1 strain tested; cited from earlier work"}, "Mycobacterium phlei": {"tested_on": "Mycobacterium phlei", "settings": "Acid Fast; Aerobe; 1 strain tested; cited from earlier work"}, "Mycoplasma hominis": {"tested_on": "Mycoplasma hominis", "settings": "Cell Wall deficient; Aerobe; 1 strain tested; cited from earlier work"}, "[12]": {"tested_on": "Escherichia coli (e. coli)", "settings": "Welch et al., mBio 2020; cited from earlier work"}},
  "data": [
    {"smiles": "CCCCCCCCCCCC(=O)OCC(O)CO", "note": "(stereo not drawn) [GML, glycerol monolaureate]", "values": [
      {"measurement": "MBC", "setting": "[1]; read-out: minimum bactericidal concentration (MBC)", "value": 250, "unit": "µg/mL"},
      {"measurement": "MIC", "setting": "[1]; read-out: minimum inhibitory concentration (MIC)", "value": 250, "unit": "µg/mL"},
      {"measurement": "inhibition of TSST-1", "setting": "TSST-1", "value": 16, "unit": "µg/mL"},
      {"measurement": "Mininum Bactericidal Concentration", "setting": "Escherichia coli; E. coli laboratory strain from a patient with urinary tract infection, same conditions as S. aureus MN8", "value": 500, "unit": "µg/mL"},
      {"measurement": "MIC", "setting": "Escherichia coli; Escherichia coli, read-out: Minimum Inhibitory Concentration", "value": 500, "unit": "µg/mL"},
      {"measurement": "MIC/MBC", "setting": "[2]", "value": 1.0, "unit": "µg/mL"},
      {"measurement": "concentrations that kill", "setting": "[3]", "value": "25 to 50", "unit": "µg/mL"},
      {"measurement": "concentration that kills", "setting": "[4]; with accelerants: low pH and EDTA addition", "value": "25 to 50", "unit": "µg/mL"},
      {"measurement": "susceptibility to GML", "setting": "[4]; without accelerants", "value": "completely resistant"},
      {"measurement": "GML concentration at which lipase cannot be produced", "setting": "[5]", "value": "about 300 µg/ml"},
      {"measurement": "Average Bactericidal Concentration", "setting": "Staphylococcus aureus", "value": 300, "unit": "mg/mL"},
      {"measurement": "Average Bactericidal Concentration", "setting": "Streptococcus pyogenes", "value": 30, "unit": "mg/mL"},
      {"measurement": "Average Bactericidal Concentration", "setting": "Streptococcus agalactiae", "value": 30, "unit": "mg/mL"},
      {"measurement": "Average Bactericidal Concentration", "setting": "Group F Streptococcus", "value": 20, "unit": "mg/mL"},
      {"measurement": "Average Bactericidal Concentration", "setting": "[6]", "value": 10, "unit": "mg/mL"},
      {"measurement": "Average Bactericidal Concentration", "setting": "Enterococcus faecalis", "value": 100, "unit": "mg/mL"},
      {"measurement": "Average Bactericidal Concentration", "setting": "[7]", "value": 50, "unit": "mg/mL"},
      {"measurement": "Average Bactericidal Concentration", "setting": "Bacillus cereus", "value": 50, "unit": "mg/mL"},
      {"measurement": "Average Bactericidal Concentration", "setting": "[8]", "value": 1, "unit": "mg/mL"},
      {"measurement": "Average Bactericidal Concentration", "setting": "Neisseria gonorrhoeae", "value": 20, "unit": "mg/mL"},
      {"measurement": "Average Bactericidal Concentration", "setting": "[9]", "value": 50, "unit": "mg/mL"},
      {"measurement": "Average Bactericidal Concentration", "setting": "Gardnerella vaginalis", "value": 10, "unit": "mg/mL"},
      {"measurement": "Average Bactericidal Concentration", "setting": "Campylobacter jejuni", "value": 1, "unit": "mg/mL"},
      {"measurement": "Average Bactericidal Concentration", "setting": "[10]", "value": 1, "unit": "mg/mL"},
      {"measurement": "Average Bactericidal Concentration", "setting": "Pseudomonas aeruginosa", "value": "Not Susceptible"},
      {"measurement": "Average Bactericidal Concentration", "setting": "Pasteurella multocida", "value": 500, "unit": "mg/mL"},
      {"measurement": "Average Bactericidal Concentration", "setting": "[11]", "value": 50, "unit": "mg/mL"},
      {"measurement": "Average Bactericidal Concentration", "setting": "Bacteroides fragilis", "value": 50, "unit": "mg/mL"},
      {"measurement": "Average Bactericidal Concentration", "setting": "Fusobacterium species", "value": 50, "unit": "mg/mL"},
      {"measurement": "Average Bactericidal Concentration", "setting": "Salmonella Minnesota", "value": "Not Susceptible"},
      {"measurement": "Average Bactericidal Concentration", "setting": "Enterobacter aerogenes", "value": "Not Susceptible"},
      {"measurement": "Average Bactericidal Concentration", "setting": "Shigella sonnei", "value": "Not Susceptible"},
      {"measurement": "Average Bactericidal Concentration", "setting": "Klebsiella pneumoniae", "value": "Not Susceptible"},
      {"measurement": "Average Bactericidal Concentration", "setting": "Mycobacterium phlei", "value": 100, "unit": "mg/mL"},
      {"measurement": "Average Bactericidal Concentration", "setting": "Mycoplasma hominis", "value": 1, "unit": "mg/mL"},
      {"measurement": "effectiveness against Escherichia coli", "setting": "[12]", "value": "not effective"}
    ]}
  ]
}
